The source of these data is paper PMC6943423, “Structure-Activity Study of an All-D Antimicrobial Octapeptide D2D” (Molecules, 2019).

One data set deals with A. baumannii 19606. Briefly: Time-kill kinetics, A. baumannii. It is filed as cell-based, Acinetobacter baumannii. The note with it: 5 × MIC, exponentially growing cells 1 × 10^8, A. baumannii 19606. On the procedure:
(§1) The time kill experiments were performed by treating exponentially growing cultures with D2D and compound 5. Overnight cultures grown in MHB-II media, were diluted 1:10.000 to ensure exponentially growing cultures (8–10 generations), before cultures reached 1 × 10^8 CFU approximately OD600 = 0.1. When cultures reached 1 × 10^8 they were split into blood glass tubes containing 3 mL each and then treated with the respective drugs at the concentrations as shown in Figure 3. Sampling was performed at 0, 1, 3, 5 and 24 h, by removing 250 µL culture. Samples were spun down at 4000 G for 5 min and supernatant removed, cells were washed in 1 mL 0.9% NaCl, spun down again, before being suspended in 250 µL 0.9% NaCl. Finally, 10 fold dilution series were prepared in 0.9% NaCl. From these 10 µL were spotted (in triplicate) onto LB agar. CFU were counted after 24 h incubation at 37 °C. Experiments were performed in triplicate from individual colonies. Data analysis was performed using GraphPad prism 5 and plotted as the mean of triplicated with standard deviation.

A short description of data set [1]: Peptide self-assembly nanostructure in solution by SAXS. As to outer radius of hollow nano-tubes: values in Å. As to shell thickness of hollow nano-tubes: values in Å. The data set is classed as physicochemical. The settings on record: for nanostructure in solution (self-assembly, SAXS model): lab SAXS, 50 mM Tris buffer pH 7.4, 2.5–10 mg/mL, ambient temperature. On the procedure:
SAXS experiments of D2D and the alanine-scan (compounds 1–8) were performed using a Bruker NANOSTAR equipped with a microfocus X-ray source (IμS Cu, InCoatec, Germany) and a VÅNTEC-2000 detector. Raw scattering data was calibrated to absolute intensity scale using water as a primary standard and radially averaged in order to obtain the 1D scattered intensity profile as a function of the scattering vector q (q = 4 π sin (θ/2)/λ), where θ is the scattering angle and λ is the X-ray wavelength of 1.54 Å. The samples were dissolved in 50 mM Tris buffer, pH 7.4 (10 mg/mL, 5 mg/mL and 2.5 mg/mL) and injected manually into a temperature-controlled quartz cell located in a vacuum chamber and measured for 180 min.
The scattering of the peptide D2D was analysed using a random polymer-like chain model:(1) Ichain(q)=ϕ·Vp·Δρ^2·Pchain(q) where ϕ is the volume fraction of the peptide, Vp is the volume of the polymer, Δρ is the excess scattering length density and Pchain(q) is the form factor of the free peptide chains given by the Debye expression for Gaussian chains:(2) gPchain(q)=2·exp[−(qRg)^2]−1+(qRg)^2/(qRg)^4 where Rg is the radius gyration of the peptide chains.
The scattering for compounds 2 and 7 was analysed using a rectangular sheet like model:(3) Isheet(q)=ϕ·Vp·Δρ^2·Np·Psheet(q)
Under the assumption that the length of the peptide sheets are much greater than the lateral dimension, i.e., c >> a, b, the form factor Psheet(q) is given by (4) Psheet(q)=Fc(q)1/2π∫02πAsheet(q, α)^2dα where the amplitude is given by (5) Asheet(q,α)=sin(qb cos(α)/2)/qb cos(α)/2· sin(qa sin(α)/2) /qa sin(α)/2) and (6) Fc(q)=(2 Si(qc)/(qc)−4 sin^2(qc/2)/(qc)^2 where Si(x)=∫0xt^−1sint dt .
The expression for the absolute scattering intensity, from this structure can be written as:(7) Inanotube(q)=ϕ·P·Vtot·Δρ^2·P(q)L·A(q)cs2·DW(q) where ϕ is the volume fraction of the peptide, P is the aggregation number given by P π(Ro2−Ri2)L/Vp where Vp is the volume of a peptide chain, Ro is the outer radius and Ri is the inner radius of the tubes, and L is the length. A(q)cs2 is given by:(8) A(q)cs2=Ro2A(q,Rc)−Rin2A(q,Ri)/(Ro2−Ri2) where A(q,x)=2J1(q·x)/(q·x) and J1(x) is the first order Bessel function.
The longitudinal form factor P(q)L is given by:(9) P(q)L=2 Si(QL)/QL −4 sin(sin^2(QL/2)/(QL)^2 where L is the length of the nanotubes and Si(x) is the Sine-function.
In addition, we introduced a slight distribution in the inner radius for possible shape fluctuations, and a Debye Waller factor, DW(q) = exp(−q^2 σ^2), describing possible surface roughness of the inner and outer wall.

The test system of another data set is E. coli 25922. Briefly: Time-kill kinetics, E. coli. The data set is classed as cell-based, Escherichia coli. The note with it: 5 × MIC, exponentially growing cells 1 × 10^8, E. coli 25922. As to the method: as §1
In a further data set the test system is S. aureus 29213. Briefly: Time-kill kinetics, S. aureus. It is filed as cell-based, Staphylococcus aureus. The note with it: for reduction in viable cells: 5 × MIC, exponentially growing cells 1 × 10^8, S. aureus 29213. As to the method:
as §1

The subject of the next data set is human red blood cells. Kind of data set: Hemolytic activity. It is filed as cell-based. In short, it runs like this: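 Compounds at two-fold dilutions (2.35 to 150 μM) in PBS were incubated with 0.5% v/v fresh human erythrocytes for 1 h at 37 °C. Released hemoglobin in the supernatant was read at 414 nm and normalised to PBS (0%) and melittin (100%) controls; percent hemolysis is reported at 150 μM.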

Data set [2] is described as follows: Lipid-peptide interaction by synchrotron SAXS. The settings on record: SAXS fit parameter, fit error < 5%. The source says:
For preparation of unilamellar lipid vesicles, synthetic DMPC (1,2-dimyristoyl-sn-glycero-3-phosphocholine), DMPG (1,2-dimyristoyl-sn-glycero-3-phospho-(10-rac-glycerol)), and DMPE-PEG (1,2-dimyristoyl-sn-glycero-3-phosphoethanolamine-N-[methoxy(polyethylene glycol)-2000]) (from Avanti Polar Lipids) were used in the molar ratio 9:7.5:2.5. The lipids were first dissolved in a 1:3 methanol:chloroform solution, and then the organic solvents were removed completely under vacuum using a Heidolph rotary evaporator with a Vacuubrand vacuum pump. The resulting lipid film was hydrated with 50 mM Tris buffer, pH 7.4, for at least one hour at 35 °C. After sonication for 10 min, the lipid dispersions were extruded through a 100 nm pore diameter polycarbonate filter (21 times) using an Avanti mini-extruder fitted with two 1 mL airtight syringes. Immediately before the SAXS experiment, a peptide solution with the adequate concentration for the target lipid:peptide ratio was mixed 1:1 with the lipid solution (1:1) using a micropipette.
SAXS experiments of the peptide-lipid mixes were performed at the automated BM29 bioSAXS beamline at the European Synchrotron Radiation Facility (ESRF) in Grenoble, France. The data was obtained using an energy of 12.5 keV and a detector distance of 2.87 m, covering a q range of about 0.0047 Å^−1 to 0.5 Å^−1. The data set was calibrated to an absolute intensity scale using water as a primary standard. 40 µL samples were run through a capillary using the flow mode of the automated sample changer. SAXS data was collected in ten successive frames of 0.5 s each to monitor radiation damage and the data reduction was done using the standard tool at BM29 [37].
The SAXS results of the lipid-peptide mixes were analysed using the theoretical model described in detail in [29]. In short, the model provides a detailed description of the membrane by dividing into probability functions for each component (lipid sub-units/peptide) across the bilayer.

For a further data set, the system named is S. aureus (ATCC 29213). The data set is classed as cell-based, Staphylococcus aureus. The settings on record: broth microdilution, MHB-II, ~5 × 10^5 CFU, 18–20 h at 37 °C, triplicate. As to the method: (§2) E. coli (ATCC 25922), S. aureus (ATCC 29213), P. aeruginosa (ATCC 27853) and A. baumannii (ATCC 19606).
(§3) Antimicrobial susceptibility testing was performed by broth dilution in MHB-II media using a protocol adapted from, with minor modifications. Briefly, the compounds were prepared in standard stocks of 1 mg/mL in milli-Q H2O. Antimicrobial dilutions were prepared in two times the final concentration (128 µg/mL) of the compounds. Bacterial suspensions were prepared from overnight cultures (MHB-II) by diluting to OD600 = 0.001 (Approximately 1 × 10^6 CFU). An amount of 100 µL MHB-II was transferred to all wells in column 1–9, excluding the antibiotics well (A1–A9). An amount of 200 µL of MHB-II was transferred to all wells in column 10–12. An amount of 200 µL peptide stock was transferred to each well from A1–9. A 2-fold serial dilution from row A–G was obtained by transferring 100 µL from row A to B, and continued until row G. Resulting in final concentration range of peptides: 128, 64, 32, 16, 8, 4, and 2 (µg/mL). Finally, 100 µL bacterial suspension (1 × 10^6 CFU) were added to all wells giving a final bacterial inoculum of approximately 5 × 10^5 colony forming units (CFU). The plates were incubated for 18–20 h at 37 °C.

The test system of a further data set is E. coli (ATCC 25922). It is filed as cell-based, Escherichia coli. The settings on record: broth microdilution, MHB-II, ~5 × 10^5 CFU, 18–20 h at 37 °C, triplicate. On the procedure:
as §2, §3

For data set [3], the system named is P. aeruginosa (ATCC 27853). The data set is classed as cell-based, Pseudomonas aeruginosa. The settings on record: broth microdilution, MHB-II, ~5 × 10^5 CFU, 18–20 h at 37 °C, triplicate. As to the method:
as §2, §3
A general note: In broth dilution the organism is exposed to a series of concentrations in liquid medium.

Data set [4] has as its system A. baumannii (ATCC 19606). It is filed as cell-based, Acinetobacter baumannii. The settings on record: broth microdilution, MHB-II, ~5 × 10^5 CFU, 18–20 h at 37 °C, triplicate. As to the method:
as §2, §3

For data set [5] the following is noted: cited from earlier work. From the text: (§4) In the present study, we investigated all-D-peptides. […] For example, Mana ...
Another data set deals with P. aeruginosa 27853. Briefly: Time-kill kinetics, P. aeruginosa. It is filed as cell-based, Pseudomonas aeruginosa. The settings on record: 5 × MIC, exponentially growing cells 1 × 10^8, P. aeruginosa 27853. On the procedure:
as §1

For a further data set, the system named is S. aureus. The settings on record: cited from earlier work.
From the text: as §4

Setting [6] is: SAXS nanotube model fit, 50 mM Tris pH 7.4, 2.5–10 mg/mL.
The mark [7] stands for this setting: fraction peptide 1:10 (peptide 5: joint SAXS/SANS fit).

Square brackets hold non-standard residues; d marks the D form. Peptide text beside a SMILES is read from it. d1Nal = N[C@H](Cc1cccc2ccccc12)C(=O)O; dNle = CCCC[C@@H](N)C(=O)O

`CCCC[C@@H](NC(=O)[C@@H](CCCCN)NC(=O)[C@@H](Cc1cccc2ccccc12)NC(=O)[C@@H](C)NC(=O)[C@@H](Cc1ccccc1)NC(=O)[C@@H](Cc1cccc2ccccc12)NC(=O)[C@@H](CCCCN)NC(=O)[C@H](N)CCCCN)C(N)=O` [Compound 5, kk(1-nal)fa(1-nal)k(nle)-NH2] (H-[dK][dK][d1Nal][dF][dA][d1Nal][dK][dNle]-NH2): the “reduction in number of viable cells” value in the data set with A. baumannii 19606 and in the data set with E. coli 25922 was 4–5 logs throughout. Further, the “outer radius of hollow nano-tubes” value in [1] (setting [6]) is on record as 33 Å. In addition, the “shell thickness of hollow nano-tubes” value in [1] (setting [6]) is 4 Å. Moreover, the “nanostructure in solution (self-assembly, SAXS model)” value in data set [1] was “hollow nano-tubes”. In addition, the “reduction in viable cells” value in the data set on S. aureus 29213 worked out at 5 log. Also, the “reduction in CFU/mL” value in the data set with S. aureus 29213 (S. aureus, concentration not stated (conclusions)) is recorded as over 3 log. Moreover, the “%H (% Hemolysis at 150 µM)” value in the data set with human red blood cells (red cells of human, 1 h, 150) worked out at 47%. The ffree peptide came out at 0.4 in data set [2] (fraction peptide 1:5), 0.5 in data set [2] (setting [7]) and 0.5 in data set [2] (fraction peptide 1:20).
In the case of `CCCC[C@@H](NC(=O)[C@@H](CCCCN)NC(=O)[C@@H](Cc1cccc2ccccc12)NC(=O)[C@@H](CCCCN)NC(=O)[C@H](N)Cc1ccccc1)C(N)=O` [Compound 29, fk(1-nal)k(nle)-NH2] (HELM PEPTIDE1{[dF].[dK].[O=C([C@@H](Cc1cccc2ccccc12)N[*:1])[*:2]].[dK].[CCCC[C@@H](N[*:1])C(=O)[*:2]].[am]}$$$$V2.0; N-terminus assumed), in the data set with S. aureus (ATCC 29213), the “Minimum Inhibitory Concentration S.A.” value is recorded as over 128 µg/mL. In addition, the “Minimum Inhibitory Concentration E.C.” value in the data set with E. coli (ATCC 25922) was over 128 µg/mL. Also, the “Minimum Inhibitory Concentration P.A.” value in [3] stood at 128 µg/mL. The “%H (% Hemolysis at 150 µM)” value with human red blood cells (150 µM in PBS, 0.5% v/v fresh human RBC, 1 h at 37 °C, absorbance 414 nm, normalised to PBS (0%) and melittin (100%)) turned out to be 12%. In addition, the “Minimum Inhibitory Concentration A.B.” value in data set [4] is given as over 128 µg/mL.
As to `CCCC[C@@H](NC(=O)[C@@H](CCCCN)NC(=O)[C@@H](Cc1cccc2ccccc12)NC(=O)[C@@H](CCCCN)NC(=O)[C@@H](Cc1ccccc1)NC(=O)[C@@H](Cc1cccc2ccccc12)NC(=O)[C@@H](CCCCN)NC(=O)[C@H](N)CCCCN)C(N)=O` [Compound D2D, kk(1-nal)fk(1-nal)k(nle)-NH2] (H-[dK][dK][d1Nal][dF][dK][d1Nal][dK][dNle]-NH2), the “reduction in number of viable cells” value in the data set on A. baumannii 19606 and in the data set with E. coli 25922 was 4–5 logs each time. In data set [1], the “nanostructure in solution (self-assembly, SAXS model)” value was “random unstructured polymer-like chains”. In the data set on S. aureus 29213, the “reduction in viable cells” value was 5 log. For the same molecule, the “activity relative to its L-enantiomer (more active)” value in data set [5] is on record as “approximately four-fold”. For the same molecule, the “%H (% Hemolysis at 150 µM)” value in the data set with human red blood cells (red cells of human, 1 h, 150) is listed as 23%. Further, the ffree peptide in [2] (fraction peptide 1:5) is 0.7; in data set [2] (setting [7]), 0.51; in [2] (fraction peptide 1:20), 0.5. For the same molecule, the “killing of viable cells” value with P. aeruginosa 27853 stood at 1 log.
In the case of “KLKLLLLLKLK-NH2 [sapesin B analog (L-form), literature peptide of Manabe et al]”, in the data set with S. aureus, the “antimicrobial activity against S. aureus” value is listed as 16 µg/mL.
